Some test systems named below: Escherichia coli AS1.349; Bacillus cereus AS1.126; Escherichia coli; Bacillus subtilis; Serratia sp. ATCC 39006; Escherichia coli UB1005.
What all share (test): ≥ marks a high value that may be exact or a test limit, other limits are often not marked, values filed in µg/mL are converted to µM
Assay [1] concerns Pseudomonas aeruginosa 0108.
The subject of assay [2] is Enterococcus faecalis CGMCC 1.595.
The subject of assay [3] is Staphylococcus epidermidis CICC 23664.
For assay [4], the system named is Proteus mirabilis CICC 22931.
The test system of assay [5] is Enterococcus faecium CGMCC 1.2334.
For assay [6], the system named is Pseudomonas aeruginosa CGMCC 1.860.
Assay [7] deals with Staphylococcus aureus AS1.72.
The test system of assay [8] is Staphylococcus epidermidis.
Assay [9] has as its system Enterobacter cloacae CGMCC 1.58.
For assay [10], the system named is Klebsiella pneumoniae subsp. pneumoniae CGMCC 1.176.
In assay [11] the test system is Streptococcus pyogenes ATCC 19615.
Assay [12] deals with Staphylococcus aureus ATCC 25923.
Assay [13] relates to Pseudomonas aeruginosa ATCC 27853.
Assay [14] relates to Enterococcus faecalis ATCC 29212.
In assay [15] the test system is Klebsiella pneumoniae ATCC 13883.
Assay [16] relates to Salmonella enterica subsp. enterica serovar Typhimurium ATCC 14028.
Assay [17] relates to Staphylococcus aureus BCRC 10780.
The test system of assay [18] is Streptococcus pneumoniae BCRC 10794.
The test system of assay [19] is Klebsiella pneumoniae ATCC 700603.
The test system of assay [20] is Neisseria gonorrhoeae ATCC 49226.
Assay [21] concerns Escherichia coli ATCC 25922.
In assay [22] the test system is Shigella sonnei ATCC 25931.
The subject of assay [23] is Staphylococcus aureus ATCC 43330.
Assay [24] has as its system Streptococcus agalactiae ATCC 12386.
Assay [25] relates to Proteus vulgaris ATCC 49132.
Assay [26] deals with Staphylococcus epidermidis ATCC 12228.
For assay [27], the system named is Staphylococcus saprophyticus ATCC 15305.
The test system of assay [28] is Micrococcus luteus ATCC 49732.
In assay [29] the test system is Pseudomonas aeruginosa ATCC 21630.
Assay [30] concerns Pseudomonas aeruginosa LCGE.
Assay [31] has as its system Salmonella enterica subsp. enterica serovar Typhimurium C77-31.
Assay [32] deals with Staphylococcus aureus ATCC 29213.
For assay [33], the system named is Pseudomonas aeruginosa ATCC 21625.
The subject of assay [34] is Pseudomonas aeruginosa ATCC 10419.
For assay [35], the system named is Pseudomonas aeruginosa LCCE.
Assay [36] relates to Pseudomonas aeruginosa LCCI.
The subject of assay [37] is Pseudomonas aeruginosa LC.
Assay [38] relates to Staphylococcus aureus ATCC 25023.

In general, MIC refers to the least concentration at which growth counts as inhibited. A higher MIC goes with weaker potency.

In brackets after ≈: the same amount, converted by molar mass.

Consider `CC[C@H](C)[C@H](N)C(=O)N[C@@H](CCCCN)C(=O)N[C@@H](CCCCN)C(=O)N[C@@H](Cc1c[nH]c2ccccc12)C(=O)N[C@@H](Cc1c[nH]c2ccccc12)C(=O)N[C@@H](CO)C(=O)N[C@@H](CCCCN)C(=O)N[C@H](C(=O)N[C@@H](CCCCN)C(=O)N[C@@H](CCCCN)C(=O)N[C@@H](CC(C)C)C(=O)N[C@@H](CC(C)C)C(=O)N[C@@H](CCCCN)C(N)=O)[C@@H](C)CC` [IKKWWSKIKKLLK], for which the MIC in assay [1] amounted to 12.5 µM (≈ 21.2 µg/mL); in assay [2], 0.78 µM (≈ 1.32 µg/mL); in [3] it was 1.56 µM (≈ 2.65 µg/mL); in [4], 6.25 µM (≈ 10.6 µg/mL); in assay [5], 1.56 µM (≈ 2.65 µg/mL); in assay [6], 3.13 µM (≈ 5.32 µg/mL). In addition, the MIC in assay [7] turned out to be 1.56 µM (≈ 2.65 µg/mL); in [8], 3.12 µM (≈ 5.3 µg/mL); in the assay with Escherichia coli AS1.349, 3.13 µM (≈ 5.32 µg/mL); against Bacillus cereus AS1.126 it was 3.13 µM (≈ 5.32 µg/mL); in [9], 0.78 µM (≈ 1.32 µg/mL); in assay [10], 25 µM (≈ 42.5 µg/mL).

As to `CC[C@H](C)[C@H](NC(=O)[C@@H]1CCCN1C(=O)[C@H](CC(C)C)NC(=O)[C@@H](N)CC(C)C)C(=O)N[C@H](C(=O)NCC(=O)N[C@@H](CC(N)=O)C(=O)N[C@@H](CC(C)C)C(=O)N[C@@H](CC(C)C)C(=O)N[C@@H](CCCCN)C(=O)N[C@@H](CO)C(=O)N[C@@H](CC(C)C)C(=O)N[C@@H](CC(C)C)C(=O)NCC(=O)N[C@@H](Cc1c[nH]c2ccccc12)C(=O)N[C@@H](CCCCN)C(=O)N[C@@H](CCCN=C(N)N)C(=O)N[C@@H](CCCCN)C(=O)N[C@@H](C)C(=O)N[C@@H](Cc1ccccc1)C(=O)NCC(N)=O)C(C)C` [LLPIVGNLLKSLLGWKRKAFG], the MIC in the assay on Escherichia coli is 100 µM (≈ 232 µg/mL); in [11] it was at least 100 µM; in [12] it was 50 µM (≈ 116 µg/mL); against Bacillus subtilis it was at least 50 µM; in assay [13] it was 200 µM (≈ 465 µg/mL); in assay [14], 100 µM (≈ 232 µg/mL). The MIC is at least 200 µM in assay [15] and above 200 µM in [16].

`CC[C@H](C)[C@H](NC(=O)[C@H](CCSC)NC(C)=O)C(=O)N[C@@H](Cc1cnc[nH]1)C(=O)NCC(=O)N[C@@H](CC(C)C)C(=O)N[C@H](C(=O)N[C@H](C(=O)N[C@@H](CCCN=C(N)N)C(=O)N[C@@H](CCCN=C(N)N)C(N)=O)[C@@H](C)O)C(C)C` [MIHGLVTRR]: the MIC in assay [17] and in [18] was at least 92.4 µM in each case.

For `CC[C@H](C)[C@H](NC(=O)[C@H](CCCCN)NC(=O)[C@H](CCCN=C(N)N)NC(=O)[C@H](CC(C)C)NC(=O)[C@H](Cc1ccccc1)NC(=O)[C@H](CCCN=C(N)N)NC(=O)CNC(=O)[C@H](Cc1ccccc1)NC(=O)[C@@H](N)CCCN=C(N)N)C(=O)N[C@@H](CCCN=C(N)N)C(=O)N[C@@H](CCCN=C(N)N)C(=O)N[C@@H](Cc1ccccc1)C(=O)N[C@@H](CCCN=C(N)N)C(=O)N1CCC[C@H]1C(=O)N[C@@H](CCCCN)C(=O)N[C@H](C(=O)N[C@H](C(=O)N[C@H](C(=O)N[C@H](C(=O)N[C@H](C(=O)N[C@@H](CCC(N)=O)C(=O)NCC(=O)N[C@@H](CO)C(=O)N[C@@H](C)C(=O)N[C@@H](CCCN=C(N)N)C(=O)N[C@@H](Cc1ccccc1)C(N)=O)[C@@H](C)CC)[C@@H](C)O)[C@@H](C)CC)[C@@H](C)O)C(C)C` [RFGRFLRKIRRFRPKVTITIQGSARF], the MIC against Serratia sp. ATCC 39006 was 3.9 µM (≈ 12.5 µg/mL); in assay [19], 4.55 µM (≈ 14.6 µg/mL); in assay [20], 5.2 µM (≈ 16.7 µg/mL); in assay [21] it was 1.62 µM (≈ 5.21 µg/mL); in assay [22] it was 3.9 µM (≈ 12.5 µg/mL); in assay [23] it was 2.6 µM (≈ 8.33 µg/mL). The minimal inhibitory concentration (MIC) in assay [12] was 2.25 µM (≈ 7.21 µg/mL); in [24], 2.6 µM (≈ 8.33 µg/mL); in assay [25], 3.25 µM (≈ 10.4 µg/mL); in assay [14], 2.25 µM (≈ 7.21 µg/mL); in [26] it was 2.92 µM (≈ 9.37 µg/mL); in assay [27] it was 0.976 µM (≈ 3.13 µg/mL). For the same molecule, the results for the MIC in assay [28] and in [16] were 0.814 µM (≈ 2.61 µg/mL) and 2.25 µM (≈ 7.21 µg/mL), respectively.

As for `CC[C@H](C)[C@H](NC(=O)[C@H](CCCCN)NC(=O)[C@H](CCCCN)NC(=O)[C@H](CC(C)C)NC(=O)[C@H](CCCN=C(N)N)NC(=O)[C@H](CCCCN)NC(=O)[C@H](CCCN=C(N)N)NC(=O)[C@@H](NC(=O)[C@H](CCCCN)NC(=O)[C@H](CCCCN)NC(=O)[C@H](CCCN=C(N)N)NC(=O)[C@H](CC(C)C)NC(=O)[C@H](CCCN=C(N)N)NC(=O)[C@H](CCCN=C(N)N)NC(=O)[C@H](Cc1ccccc1)NC(=O)[C@@H](N)CCCN=C(N)N)[C@@H](C)O)C(N)=O` [RFRRLRKKTRKRLKKI], the MIC in assay [29] was at least 256 µM; in assay [30], at least 256 µM; in assay [21], 128 µM (≈ 279 µg/mL); in [31], at least 128 µM; in [32], 128 µM (≈ 279 µg/mL); in [33], at least 256 µM. For the same molecule, the MIC in [13] was 256 µM (≈ 559 µg/mL); in assay [34] it was at least 256 µM; in assay [14], 128 µM (≈ 279 µg/mL); in assay [26], 32 µM (≈ 69.8 µg/mL); in the assay on Escherichia coli UB1005 it was at least 128 µM; in assay [35], at least 256 µM. For the same molecule, the MIC in assay [36] was at least 256 µM; in assay [37] it was at least 32 µM.

`CC(C)C[C@H](NC(=O)[C@H](CCCN=C(N)N)NC(=O)[C@H](CC(C)C)NC(=O)[C@H](CC(C)C)NC(=O)[C@H](CC(C)C)NC(=O)[C@H](CC(C)C)NC(=O)[C@H](CC(C)C)NC(=O)[C@H](CCCCN)NC(=O)[C@H](CC(C)C)NC(=O)[C@@H](N)CCCN=C(N)N)C(N)=O` [RLKLLLLLRL] had an MIC in assay [38] of 6.4 µM (≈ 7.99 µg/mL).

These data come from DBAASP.
